Results on 3 molecules are retold here after patent US12508306B2, “Compositions and methods of use thereof for treatment of metabolic diseases and related disorders” (Washington University, priority 2018, dated 2025).

In series [1] the test system is Arg2. The series is described as follows: Arg2 gene expression in cultured primary hepatocytes (RNA-seq, qPCR). The class given is cell-based, murine. From the text:
AML12 cells (CRL-2254) were purchased directly from the American Type Culture Collection (ATCC) and propagated and maintained precisely per manufacturer specification. Primary hepatocyte cell isolation, culture and treatment Primary murine hepatocytes obtained from WT mice were isolated^24,25,31 and cultured and maintained in regular DMEM growth media (Sigma, #D5796) containing 10% FBS. For in vitro starvation experiments, “starved” media contained 1 g/L glucose and 0:5% FBS was used. Cultures were lysed in Trizol and subjected to downstream analysis. In vitro genetic knockdown was achieved via siRNA transfection using Lipofectamine 3000 from Invitrogen (L3000015). Trehalose was obtained from Sigma Aldrich (St. Louis, MO) and was >97% purity by HPLC. Three percent trehalose water (w/v) fed ad libitum was used in all in vivo experiments.
Total RNA was prepared by homogenizing snap-frozen livers or cultured hepatocytes in Trizol reagent (Invitrogen #15596026) according to the manufacturer's protocol. cDNA was prepared using Qiagen Quantitect reverse transcriptase kit (Qiagen #205310). Real-time qPCR was performed with Step-One Plus Real-Time PCR System (Applied Biosystems) using SYBR Green master Mix Reagent (Applied Biosystems) and specific primer pairs. Relative gene expression was calculated by a comparative method using values normalized to the expression of an internal control gene.

The subject of series [2] is Arg2. The series can be described thus: Hepatic Arg2 expression by qPCR and immunoblot in mice subjected to trehalose feeding. The note with it: mice fed 3% trehalose water ad libitum, 5 days. The class given is in vivo. From the text:
AML12 cells (CRL-2254) were purchased directly from the American Type Culture Collection (ATCC) and propagated and maintained precisely per manufacturer specification. Primary hepatocyte cell isolation, culture and treatment Primary murine hepatocytes obtained from WT mice were isolated^24,25,31 and cultured and maintained in regular DMEM growth media (Sigma, #D5796) containing 10% FBS. For in vitro starvation experiments, “starved” media contained 1 g/L glucose and 0:5% FBS was used. Cultures were lysed in Trizol and subjected to downstream analysis. In vitro genetic knockdown was achieved via siRNA transfection using Lipofectamine 3000 from Invitrogen (L3000015). […]
Total RNA was prepared by homogenizing snap-frozen livers or cultured hepatocytes in Trizol reagent (Invitrogen #15596026) according to the manufacturer's protocol. cDNA was prepared using Qiagen Quantitect reverse transcriptase kit (Qiagen #205310). […] Relative gene expression was calculated by a comparative method using values normalized to the expression of an internal control gene.
Tissues were homogenized in RIPA buffer supplemented with protease and phosphatase inhibitors (Thermo Scientific). […] Protein concentration was determined by BCA Assay Kit (Thermo Scientific) and was adjusted to 2 mg/mL. […] Protein expression levels were quantified with Image Lab software and normalized to the levels of β-actin or GAPDH.

For series [3] the following is noted: read-out: Km for arginine; cited from earlier work.

With `OCC1OC(OC2OC(CO)C(O)C(O)C2O)C(O)C(O)C1O` (centres unmarked) [Lactotrehalose, lactotrehalose], the “Arg2 expression compared with native trehalose at equivalent doses” value in the series with Arg2 [1] (primary hepatocytes, 10 mM and 100 mM) is listed as “significantly enhanced”.
On to `OC[C@H]1O[C@H](O[C@H]2O[C@H](CO)[C@@H](O)[C@H](O)[C@H]2O)[C@H](O)[C@@H](O)[C@@H]1O` [trehalose], for which the “Arg2 induction by qPCR and immunoblot” value in the series with Arg2 [1] (primary hepatocytes, 1 mM, 10 mM, and 100 mM, within 24 h) was “rapid, dose-dependent, cell autonomous Arg2 induction”. Further, in the series with Arg2 [1] (trehalose-treated primary hepatocytes relative to untreated hepatocytes), the “Arg2 expression by RNA-seq” value was “among the most highly upregulated genes”. Moreover, in the series on Arg2 [2], the “hepatic Arg2 mRNA and protein” value was “induced Arg2 mRNA and protein”.

B1: human arginase 1: human arginase 1 enzyme (protein, UniProt P05089 1-322, looked up)
Arginase-1: MSAKSRTIGIIGAPFSKGQPRGGVEEGPTVLRKAGLLEKLKEQECDVKDYGDLPFADIPNDSPFQIVKNPRSVGKASEQLAGKVAEVKKNGRISLVLGGDHSLAIGSISGHARVHPDLGVIWVDAHTDINTPLTTTSGNLHGQPVSFLLKELKGKIPDVPGFSWVTPCISAKDIVYIGLRDVDPGEHYILKTLGIKYFSMTEVDRLGIGKVMEETLSYLLGRKKRPIHLSFDVDGLDPSFTPATGTPVVGGLTYREGLYITEEIYKTGLLSGLDIMEVNPSLGKTPEEVTRTVNTAVAITLACFGLAREGNHKPIDYLNPPK
For B1, the Km in series [3] was about 45 mM.

For orientation: Km means the concentration of substrate that gives half-maximal velocity.
